Assay results as given in patent publication US20160113931A1, “Method of treating and/or preventing neurodegenerative diseases” (University of Macau, priority 2014, published 2016).
“Also recorded” adds a separate entry of the source.

Legend:
[1] = biological target: ROCK1 (Homo sapiens, UniProt Q13464); assay: Kinase activity assay ROCK1; type: biochemical
Description: ROCK has two isoforms (ROCK1 and ROCK2) sharing the same downstream proteins. Bioassay and molecular docking are used to compare the characteristics of BHDPC on ROCK. […] Through molecular docking and molecular dynamics simulation, the interaction between the inhibitor and ROCK1 was shown in FIG. 17.

[2] = tested on: oligodendroglial progenitor cells (OPCs); assay: Hydrogen peroxide-induced OPC death (MTT assay); type: cell-based, rat; conditions: 30 μM, 200 μM hydrogen peroxide 6 h
Procedure: (§1) OPCs were incubated with 30 μM BHDPC or 0.1% DMSO (vehicle control) for 2 h followed by the addition or not of 200 μM H2O2 for a further 6 h (FIG. 11A) or LPS (FIG. 11B) for 24 h.
(§2) The percentage of surviving cells was estimated by determining the activity of mitochondrial dehydrogenases with 3(4,5-dimethylthiazol-2-yl)-2,5-diphenyltetrazolium bromide (MTT) assay. After drug treatment, cells were incubated at 37° C. for 4 h in 0.5 mg/mL MTT solution. The medium was then removed, and 100 μL of DMSO was added to each well to dissolve the violet formazan crystals. The absorbance of the samples was measured at a wavelength of 570 nm with 655 nm as a reference wavelength. All values were normalized to the control groups.
(§3) Purified OPC cultures were prepared as described. In brief, primary rat mixed glial cell cultures were isolated from whole brains of postnatal day (P) 2 rats, dissociated into single cells, and cultured into poly-D-lysine (PDL) coated T75 tissue culture flasks. Plating medium consisted of Dulbecco's modified Eagle's medium (DMEM, Invitrogen, Carlsbad, Calif.) supplemented with 10% fetal bovine serum (FBS; Invitrogen, Carlsbad, Calif.), […]. Tissue cultures were maintained at 37° C. in a humidified 5% CO2 incubator, and medium was exchanged every 3 days. […]

[3] = tested on: SH-SY5Y cells; assay: MPP+-induced cytotoxicity in SH-SY5Y cells (MTT assay); type: cell-based, human; conditions: 30 μM, 2 h pre-treatment, 1 mM MPP+ 24 h
Procedure: Cells were pre-treated with BHDPC (3, 10 and 30 μM) for 2 h and then incubated with or without 1 mM MPP^+ for further 24 h. Cell viability was measured by the MTT assay.
The human neuroblastoma SH-SY5Y cells were purchased from America Tissue Type Collection. The cells were maintained in DMEM medium supplemented with 10% fetal bovine serum and penicillin/streptomycin (100 U/mL; 100 μg/mL) in a 37° C., 5% CO2 incubator. All experiments were carried out 48 hours after the cells were seeded.
as §2
To test the neuroprotective effects of BHDPC, SH-SY5Y cells were pre-treated with gradually increasing concentrations of BHDPC for 2 h and then treated with 1 mM MPP^+ for 24 hours. Cell viability was measured using the MTT assay.

[4] = tested on: oligodendroglial progenitor cells (OPCs); assay: OPC proliferation (EdU incorporation assay and Ki67 immunostaining); type: cell-based, rat; conditions: 2 days
Procedure: FIGS. 10A, 10B and 10C show the effects of BHDPC in oligodendroglial progenitor cells (OPCs) proliferation. OPCs were incubated with the drugs at indicated concentrations in proliferation medium for 2 days. (FIG. 10A) The cell viability was measured by MTT assay.
as §3, with “days. Once confluent (after 10-15 days), microglia were separated by mechanical shaking of flasks on a rotary shaker for […] at 250 rpm and removed.” for “days.”
OPC was incubated with BHDPC or 0.1% DMSO in the proliferation medium for two days. […] Photographs were captured by fluorescence microscope.
To test the effect of BHDPC on primary OPC culture, OPCs were treated with BHDPC for 48 h and the cell viability was determined using MTT assay. […]

[5] = tested on: oligodendroglial progenitor cells (OPCs); assay: LPS-induced OPC death (MTT assay); type: cell-based, rat; conditions: 30 μM BHDPC 2 h, LPS 24 h
Procedure: as §1, §2, §3

[6] = tested on: zebrafish; assay: MPTP-induced deficit of locomotion behavior in zebrafish larvae; type: in vivo, Danio rerio
Procedure: Three dpf zebrafish embryos were co-incubated with 10 μM MPTP and BHDPC at the indicated concentrations for 96 hours, and zebrafish larval co-treated with MPTP and 150 μM L-dopa was used as positive control. After treatment, zebrafish were collected to perform locomotion behavior test using Viewpoint Zebrabox system and total distances travelled in 10 min were calculated.
The AB strain of wild type zebrafish (Danio rerio) was maintained as described in the Zebrafish Handbook. Zebrafish were staged by days post fertilization […]. For breeding, groups of male and female (3:2) adult zebrafish were placed in 10-L plastic aquarium equipped with spawning nets in the evening. In the following morning, eggs were collected from the breeding group tanks. Normally developed fertilized eggs were selected under a stereomicroscope for further studies. The MPTP manipulation was performed with appropriate safety precautions and all MPTP-containing water was bleached.
In addition, MPTP markedly altered the swimming behavior of the zebrafish as a consequence of DA neuronal injury. […] BHDPC ameliorated MPTP-induced deficit of swimming behavior. At the same condition, MPTP-induced deficit of swimming behavior were rescued by positive controls, levodopa (L-dopa) (FIG. 16).

[7] = tested on: SH-SY5Y cells; assay: Effect of PKA inhibitor H89 on BHDPC neuroprotection under MPP+ cytotoxicity; type: cell-based, human; conditions: with H89
Description: To further confirm the involvement of PKA activation in the protective effects of BHDPC, H89, a PKA inhibitor was used to measure cell survival under MPP^+ cytotoxicity (FIG. 9).

Sequence of ROCK1 (Q13464 whole entry, species assumed, canonical isoform): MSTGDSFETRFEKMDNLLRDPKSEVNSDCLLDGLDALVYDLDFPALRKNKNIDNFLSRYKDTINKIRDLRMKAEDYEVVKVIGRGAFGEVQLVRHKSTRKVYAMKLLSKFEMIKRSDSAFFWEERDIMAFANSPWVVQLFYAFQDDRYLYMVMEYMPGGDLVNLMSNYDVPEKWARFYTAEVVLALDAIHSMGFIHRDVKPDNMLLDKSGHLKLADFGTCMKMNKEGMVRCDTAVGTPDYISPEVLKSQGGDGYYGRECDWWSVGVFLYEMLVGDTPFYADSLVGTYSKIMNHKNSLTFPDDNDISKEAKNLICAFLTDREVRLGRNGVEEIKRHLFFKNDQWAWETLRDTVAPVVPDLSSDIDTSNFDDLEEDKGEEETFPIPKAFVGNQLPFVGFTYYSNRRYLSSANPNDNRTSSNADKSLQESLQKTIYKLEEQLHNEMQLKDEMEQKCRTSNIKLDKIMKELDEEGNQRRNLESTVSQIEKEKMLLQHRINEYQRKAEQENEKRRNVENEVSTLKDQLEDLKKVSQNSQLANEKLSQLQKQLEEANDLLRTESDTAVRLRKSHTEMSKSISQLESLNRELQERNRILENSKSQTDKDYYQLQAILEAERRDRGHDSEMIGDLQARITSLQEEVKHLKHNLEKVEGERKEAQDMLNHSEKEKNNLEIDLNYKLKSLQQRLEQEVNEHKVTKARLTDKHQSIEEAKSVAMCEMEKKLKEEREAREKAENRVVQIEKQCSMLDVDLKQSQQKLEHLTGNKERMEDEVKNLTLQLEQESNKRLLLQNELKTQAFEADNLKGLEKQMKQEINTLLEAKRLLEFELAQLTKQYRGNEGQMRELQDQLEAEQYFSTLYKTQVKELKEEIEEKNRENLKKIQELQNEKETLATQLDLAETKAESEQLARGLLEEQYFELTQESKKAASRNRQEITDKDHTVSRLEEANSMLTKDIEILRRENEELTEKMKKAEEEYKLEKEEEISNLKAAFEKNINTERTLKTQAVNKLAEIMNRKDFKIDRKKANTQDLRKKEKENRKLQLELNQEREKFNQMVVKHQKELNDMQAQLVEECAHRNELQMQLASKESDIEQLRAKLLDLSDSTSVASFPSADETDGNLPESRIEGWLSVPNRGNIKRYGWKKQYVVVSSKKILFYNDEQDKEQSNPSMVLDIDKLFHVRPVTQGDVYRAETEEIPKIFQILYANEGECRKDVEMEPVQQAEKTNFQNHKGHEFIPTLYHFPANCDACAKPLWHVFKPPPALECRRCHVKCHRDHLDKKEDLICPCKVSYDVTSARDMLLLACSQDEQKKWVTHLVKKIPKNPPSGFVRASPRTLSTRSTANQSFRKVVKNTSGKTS

COc1cc(C2C(C(=O)OCc3ccccc3)=C(C)Nc3nnnn32)ccc1O (stereo not shown) [BHDPC, benzyl 7-(4-hydroxy-3-methoxyphenyl)-5-methyl-4,7-dihydrotetrazolo[1,5-a]pyrimidine-6-carboxylate]
affinity ROCK1 versus ROCK2 ([1]; from IC50 values): better affinity for ROCK1 than ROCK2 | IC50 ([1]; kinase activity assay): 13.7 µM | hydrogen peroxide-induced cell death [2]: dramatically attenuated | MPP+-induced neuronal death (cell viability, MTT) [3]: prevented MPP^+-induced dopaminergic neuronal death | ratio of EdU+/oligo2 cells ([4]; 30 μM): increased | ratio of Ki67+/oligo2 cells [4]: increased | LPS-induced cell death [5]: reduced LPS-induced cell death | swimming behaviour of normal zebrafish larvae ([6]; BHDPC treatment alone): notably altered | MPTP-induced deficit of swimming behavior (total distance travelled in 10 min) ([6]; co-incubated with 10 μM MPTP, 96 hours, 3 dpf): ameliorated; also recorded: attenuated | neuroprotective effect of BHDPC in presence of PKA inhibitor H89 [7]: abolished
